Experimental data from patent publication US11498899B2, “Nitrone herbicides” (FMC Corporation, priority 2016, dated 2022).

Legend:
[1] = test system: foxtail, giant (giant foxtail, Setaria faberii); assay: Test A preemergence, visual injury rating 0-100; format: in vivo
kochia (Kochia scoparia) [2] = assay: Test A preemergence, visual injury rating 0-100; format: in vivo
[3] = test system: pigweed (Amaranthus retroflexus); assay: Test A preemergence, visual injury rating 0-100; format: in vivo
[4] = test system: ryegrass, Italian (Italian ryegrass, Lolium multiflorum); assay: Test A preemergence, visual injury rating 0-100; format: in vivo
[5] = test system: ragweed (common ragweed, Ambrosia elatior); assay: Test A preemergence, visual injury rating 0-100; format: in vivo
corn (Zea mays) = assay: Test A postemergence, visual injury rating 0-100; format: in vivo; conditions: 0 to 100 scale
[6] = test system: blackgrass (Alopecurus myosuroides); assay: Test A postemergence, visual injury rating 0-100; format: in vivo; conditions: 0 to 100 scale
[7] = test system: foxtail, giant (giant foxtail, Setaria faberii); assay: Test A postemergence, visual injury rating 0-100; format: in vivo; conditions: 0 to 100 scale
[8] = test system: barnyardgrass (Echinochloa crus-galli); assay: Test A postemergence, visual injury rating 0-100; format: in vivo; conditions: 0 to 100 scale
kochia (Kochia scoparia) [9] = assay: Test A postemergence, visual injury rating 0-100; format: in vivo; conditions: 0 to 100 scale
[10] = test system: pigweed (Amaranthus retroflexus); assay: Test A postemergence, visual injury rating 0-100; format: in vivo; conditions: 0 to 100 scale
[11] = test system: ryegrass, Italian (Italian ryegrass, Lolium multiflorum); assay: Test A postemergence, visual injury rating 0-100; format: in vivo; conditions: 0 to 100 scale
[12] = test system: galium (catchweed bedstraw, Galium aparine); assay: Test A postemergence, visual injury rating 0-100; format: in vivo; conditions: 0 to 100 scale
[13] = test system: wheat (Triticum aestivum); assay: Test A postemergence, visual injury rating 0-100; format: in vivo; conditions: 0 to 100 scale
[14] = test system: ragweed (common ragweed, Ambrosia elatior); assay: Test A postemergence, visual injury rating 0-100; format: in vivo; conditions: 0 to 100 scale
[15] = test system: barnyardgrass (Echinochloa crus-galli); assay: Test B flooded paddy test, visual rating 0-100; conditions: Flood, 250 g ai/ha, applied to paddy water, rated after 13 to 15 days
[16] = test system: ducksalad (Heteranthera limosa); assay: Test B flooded paddy test, visual rating 0-100; conditions: Flood, 250 g ai/ha, applied to paddy water, rated after 13 to 15 days
rice (Oryza sativa) = assay: Test B flooded paddy test, visual rating 0-100 (0 no effect, 100 complete control); conditions: Flood, 250 g ai/ha, applied to paddy water, rated after 13 to 15 days
[17] = test system: barnyardgrass (Echinochloa crus-galli); assay: Test A preemergence, visual injury rating 0-100 (0 no effect, 100 complete control); format: in vivo

| Structure (SMILES) | Foxtail, Giant plant response rating (0 to 100 scale) ([1]; 125 g ai/ha) | Foxtail, Giant plant response rating (0 to 100 scale) ([1]; 500 g ai/ha) | Kochia plant response rating (0 to 100 scale) (kochia (Kochia scoparia) [2]; 125 g ai/ha) | Kochia plant response rating (0 to 100 scale) (kochia (Kochia scoparia) [2]; 500 g ai/ha) | Pigweed plant response rating (0 to 100 scale) ([3]; 125 g ai/ha) | Pigweed plant response rating (0 to 100 scale) ([3]; 500 g ai/ha) | Ryegrass, Italian plant response rating (0 to 100 scale) ([4]; 125 g ai/ha) | Ryegrass, Italian plant response rating (0 to 100 scale) ([4]; 500 g ai/ha) | Ragweed plant response rating (0 to 100 scale) ([5]; 125 g ai/ha) | Ragweed plant response rating (0 to 100 scale) ([5]; 500 g ai/ha) | Corn plant response rating (corn (Zea mays); 125 g ai/ha) | Corn plant response rating (corn (Zea mays); 500 g ai/ha) | Blackgrass plant response rating ([6]; 125 g ai/ha) | Blackgrass plant response rating ([6]; 500 g ai/ha) | Foxtail, Giant plant response rating ([7]; 125 g ai/ha) | Foxtail, Giant plant response rating ([7]; 500 g ai/ha) | Barnyardgrass plant response rating ([8]; 125 g ai/ha) | Barnyardgrass plant response rating ([8]; 500 g ai/ha) | Kochia plant response rating (kochia (Kochia scoparia) [9]; 125 g ai/ha) | Kochia plant response rating (kochia (Kochia scoparia) [9]; 500 g ai/ha) | also measured |
| --- | --- | --- | --- | --- | --- | --- | --- | --- | --- | --- | --- | --- | --- | --- | --- | --- | --- | --- | --- | --- | --- |
| COc1cc(C2CC(C)=[N+]([O-])C2C(=O)Nc2cccc(F)c2F)cc(C)n1 (racemic) [Compound 57] | 90 | 100 | 60 | 60 | 0 | 20 | 20 | 90 | 0 | 30 | 60 | 90 | 80 | 90 | 40 | 90 | 80 | 80 | 0 | 30 | Pigweed plant response rating ([10]; 125 g ai/ha): 0; Pigweed plant response rating ([10]; 500 g ai/ha): 0; Ryegrass, Italian plant response rating ([11]; 125 g ai/ha): 40; Ryegrass, Italian plant response rating ([11]; 500 g ai/ha): 90; Galium plant response rating ([12]; 125 g ai/ha): 30; Galium plant response rating ([12]; 500 g ai/ha): 40; Wheat plant response rating ([13]; 125 g ai/ha): 20; Wheat plant response rating ([13]; 500 g ai/ha): 90; Ragweed plant response rating ([14]; 125 g ai/ha): 0; Ragweed plant response rating ([14]; 500 g ai/ha): 0; Barnyardgrass plant response rating (0 to 100 scale) [15]: 55; Ducksalad plant response rating (0 to 100 scale) [16]: 0; Rice plant response rating (0 to 100 scale) (rice (Oryza sativa)): 0; Barnyardgrass plant response rating (0 to 100 scale) ([17]; 125 g ai/ha): 90; Barnyardgrass plant response rating (0 to 100 scale) ([17]; 500 g ai/ha): 100 |
| CC1=[N+]([O-])C(C(=O)Nc2cccc(F)c2F)C(c2cccc(Oc3ccc(F)cc3)c2)C1 (racemic) [Compound 58] | 40 | 90 | 0 | 0 | 0 | 0 | 10 | 80 | 0 | 90 | 0 | 40 | 20 | 70 | 30 | 70 | 10 | 30 | 0 | 20 | Pigweed plant response rating ([10]; 125 g ai/ha): 0; Pigweed plant response rating ([10]; 500 g ai/ha): 30; Ryegrass, Italian plant response rating ([11]; 125 g ai/ha): 20; Ryegrass, Italian plant response rating ([11]; 500 g ai/ha): 50; Galium plant response rating ([12]; 125 g ai/ha): 30; Galium plant response rating ([12]; 500 g ai/ha): 50; Wheat plant response rating ([13]; 125 g ai/ha): 10; Wheat plant response rating ([13]; 500 g ai/ha): 20; Ragweed plant response rating ([14]; 125 g ai/ha): 0; Ragweed plant response rating ([14]; 500 g ai/ha): 0; Barnyardgrass plant response rating (0 to 100 scale) [15]: 0; Ducksalad plant response rating (0 to 100 scale) [16]: 0; Rice plant response rating (0 to 100 scale) (rice (Oryza sativa)): 0; Barnyardgrass plant response rating (0 to 100 scale) ([17]; 125 g ai/ha): 10; Barnyardgrass plant response rating (0 to 100 scale) ([17]; 500 g ai/ha): 90 |
| CC1=[N+]([O-])C(C(=O)Nc2cccc(F)c2F)C(c2ccc(C(F)(F)F)nc2)C1 (racemic) [Compound 60] | 90 | 100 | 10 | 80 | 50 | 80 | 10 | 70 | 0 | 90 | 20 | 60 | 10 | 70 | 70 | 90 | 40 | 90 | 0 | 10 | Pigweed plant response rating ([10]; 125 g ai/ha): 0; Pigweed plant response rating ([10]; 500 g ai/ha): 10; Ryegrass, Italian plant response rating ([11]; 125 g ai/ha): 0; Ryegrass, Italian plant response rating ([11]; 500 g ai/ha): 40; Galium plant response rating ([12]; 125 g ai/ha): 20; Galium plant response rating ([12]; 500 g ai/ha): 60; Wheat plant response rating ([13]; 125 g ai/ha): 20; Wheat plant response rating ([13]; 500 g ai/ha): 70; Ragweed plant response rating ([14]; 125 g ai/ha): 0; Ragweed plant response rating ([14]; 500 g ai/ha): 40; Barnyardgrass plant response rating (0 to 100 scale) [15]: 40; Ducksalad plant response rating (0 to 100 scale) [16]: 0; Rice plant response rating (0 to 100 scale) (rice (Oryza sativa)): 0; Barnyardgrass plant response rating (0 to 100 scale) ([17]; 125 g ai/ha): 90; Barnyardgrass plant response rating (0 to 100 scale) ([17]; 500 g ai/ha): 100 |
| CC1=[N+]([O-])C(C(=O)Nc2cccc(F)c2F)C(c2ccc(C)c(C(F)(F)F)c2)C1 (racemic) [Compound 62] | 90 | 90 | 0 | 60 | 10 | 70 | 90 | 90 | 0 | 60 | 60 | 80 | 40 | 70 | 50 | 80 | 70 | 80 | 0 | 20 | Pigweed plant response rating ([10]; 125 g ai/ha): 0; Pigweed plant response rating ([10]; 500 g ai/ha): 10; Ryegrass, Italian plant response rating ([11]; 125 g ai/ha): 70; Ryegrass, Italian plant response rating ([11]; 500 g ai/ha): 80; Galium plant response rating ([12]; 125 g ai/ha): 40; Galium plant response rating ([12]; 500 g ai/ha): 50; Wheat plant response rating ([13]; 125 g ai/ha): 40; Wheat plant response rating ([13]; 500 g ai/ha): 50; Ragweed plant response rating ([14]; 125 g ai/ha): 0; Ragweed plant response rating ([14]; 500 g ai/ha): 50; Barnyardgrass plant response rating (0 to 100 scale) [15]: 55; Ducksalad plant response rating (0 to 100 scale) [16]: 0; Rice plant response rating (0 to 100 scale) (rice (Oryza sativa)): 0; Barnyardgrass plant response rating (0 to 100 scale) ([17]; 125 g ai/ha): 90; Barnyardgrass plant response rating (0 to 100 scale) ([17]; 500 g ai/ha): 90 |
| CC1=[N+]([O-])C(C(=O)Nc2cccc(F)c2F)C(c2ccc(F)c(Cl)c2)C1 (racemic) [Compound 63] | 90 | 90 | 0 | 40 | 10 | 60 | 20 | 80 | 0 | 80 | 10 | 90 | 70 | 90 | 50 | 90 | 50 | 90 | 20 | 30 | Pigweed plant response rating ([10]; 125 g ai/ha): 0; Pigweed plant response rating ([10]; 500 g ai/ha): 20; Ryegrass, Italian plant response rating ([11]; 125 g ai/ha): 30; Ryegrass, Italian plant response rating ([11]; 500 g ai/ha): 90; Galium plant response rating ([12]; 125 g ai/ha): 30; Galium plant response rating ([12]; 500 g ai/ha): 70; Wheat plant response rating ([13]; 125 g ai/ha): 40; Wheat plant response rating ([13]; 500 g ai/ha): 80; Ragweed plant response rating ([14]; 125 g ai/ha): 0; Ragweed plant response rating ([14]; 500 g ai/ha): 20; Barnyardgrass plant response rating (0 to 100 scale) [15]: 65; Ducksalad plant response rating (0 to 100 scale) [16]: 30; Rice plant response rating (0 to 100 scale) (rice (Oryza sativa)): 0; Barnyardgrass plant response rating (0 to 100 scale) ([17]; 125 g ai/ha): 80; Barnyardgrass plant response rating (0 to 100 scale) ([17]; 500 g ai/ha): 90 |
